In PMC9295786, “Discovery of potent BET bromodomain 1 stereoselective inhibitors using DNA-encoded chemical library selections” (Proceedings of the National Academy of Sciences of the …, 2022):
pEC50, pIC50, pKd: −log10 of the molar value. “And” between values parts separate entries of the source, which are not always exact repeats. Equal entries are not always repeated. Where two headings read alike, the source gives them in different places.

Experiments:
BRDT-BD2 = molecular target: T1, BRDT-BD2 (Homo sapiens, UniProt Q58F21); test: AlphaScreen competition assay with biotinylated JQ1; assay type: binding
T1 construct: two similar tandem bromodomains (BD1 and BD2); made in house; host or cells: bacteria (pET15b or pET28b vector)

BRD4-BD2 = molecular target: T2, BRD4-BD2 (Homo sapiens, UniProt O60885); test: as above; assay type: binding; settings: read-out: BRD4-BD2 IC50
T2 construct: two similar tandem bromodomains (BD1 and BD2); made in house; host or cells: bacteria (pET15b or pET28b vector)

BRD4-BD1 [1] = molecular target: T3, BRD4-BD1 (Homo sapiens, UniProt O60885); test: as above; assay type: binding; design: the bromodomain 1 (BD1) of BRD4; made in house; host or cells: bacteria (pET15b or pET28b vector); settings: for BRD4-BD1 vs. BRD4-BD2 fold (BRD4-BD1 selectivity): ratio of AlphaScreen IC50 values, NE = not efficient; for pIC50: read-out: BRD4-BD1 IC50
BRDT-BD1 = BRDT-BD1 (Homo sapiens, UniProt Q58F21); test: as above; assay type: binding; design: the first bromodomain of BRDT (BRDT-BD1); made in house; host or cells: bacteria (pET15b or pET28b vector); settings: for BRDT-BD1 vs. BRDT-BD2 fold (BRDT-BD1 selectivity): ratio of AlphaScreen IC50 values, NE = not efficient
TAF1-BD2 = settings: BROMOscan profile; cited from earlier work
TAF1L-BD2 = settings: BROMOscan profile; cited from earlier work
[2] = Metabolic stability assay in liver microsomes (MLM); assay type: in vitro ADME; settings: mouse liver microsomes 0.5 mg protein/mL, compound 2.0 μM, NADPH 1.0 mM; read-out: MLM t1/2 (half-life)
[3] = Metabolic stability assay in liver microsomes (HLM); assay type: in vitro ADME; settings: human liver microsomes 0.5 mg protein/mL, compound 2.0 μM, NADPH 1.0 mM; read-out: HLM t1/2 (half-life)
BRD2-BD1 = molecular target: T4, BRD2-BD1 (Homo sapiens, UniProt P25440); settings: cited from earlier work
T4 construct: two similar tandem bromodomains (BD1 and BD2); purchased Eurofins DiscoverX (Fremont, CA); host or cells: E. coli host derived from the BL21 strain, T7 phage

BRD4-BD1 [4] = molecular target: T3, BRD4-BD1; design: the bromodomain 1 (BD1) of BRD4; purchased Eurofins DiscoverX (Fremont, CA); host or cells: E. coli host derived from the BL21 strain, T7 phage; settings: BROMOscan assays; cited from earlier work
BRD4-BD1 [5] = molecular target: T3, BRD4-BD1; design: the bromodomain 1 (BD1) of BRD4; purchased Eurofins DiscoverX (Fremont, CA); host or cells: E. coli host derived from the BL21 strain, T7 phage; settings: read-out: IC50 BRD4-BD1 AlphaScreen; cited from earlier work
MV4;11 cells [6] = test: Cell viability by CellTiterGlo; assay type: cell-based; settings: for pIC50: 72 h of treatment, CellTiterGlo, normalized to DMSO, read-out: Viability IC50 MV4;11; for pEC50: Table S6, NE = not efficient, read-out: MV4-11 EC50 (viability)
MOLM-13 cells [7] = test: Cell viability by CellTiterGlo; assay type: cell-based; settings: 72 h of treatment, CellTiterGlo, normalized to DMSO, read-out: Viability IC50 MOLM-13
THP1 cells = test: Cell viability by CellTiterGlo; assay type: cell-based; settings: 72 h of treatment, CellTiterGlo, normalized to DMSO, read-out: Viability IC50 THP1
Kasumi1 cells = test: Cell viability by CellTiterGlo; assay type: cell-based; settings: 72 h of treatment, CellTiterGlo, normalized to DMSO, read-out: Viability IC50 Kasumi1
MV4;11 cells [8] = test: Cell cycle analysis by flow cytometry; assay type: cell-based; settings: 24 h of treatment at the IC50
MV4;11 cells [9] = test: Apoptosis detection (Annexin V) by flow cytometry; assay type: cell-based; settings: 72 h of treatment
MOLM-13 cells [10] = test: Apoptosis detection (Annexin V) by flow cytometry; assay type: cell-based; settings: 72 h of treatment
[11] = tested on: MYC expression in MOLM-13 cells; test: MYC expression by RT-qPCR; assay type: cell-based; settings: 8 h of treatment
[12] = tested on: MYC expression in MV4;11 cells; test: MYC expression by RT-qPCR; assay type: cell-based; settings: 8 h of treatment
BD2 = tested on: BD2; design: method as in PMID 24391744; settings: cited from earlier work
[13] = AlphaScreen, biotinylated JQ1 10 nM, His-bromodomain 10 nM
[14] = AlphaScreen, biotinylated JQ1 10 nM, His-bromodomain 10 nM, NE = not efficient, read-out: BRDT-BD2 IC50
[15] = AlphaScreen, biotinylated JQ1 10 nM, His-bromodomain 10 nM, NE = not efficient

T4 sequence (P25440 74-180 limits assumed): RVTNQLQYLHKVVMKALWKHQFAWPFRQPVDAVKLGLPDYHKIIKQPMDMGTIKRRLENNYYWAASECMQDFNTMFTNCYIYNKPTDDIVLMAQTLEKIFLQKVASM

SMILES | pIC50 (BRDT-BD2; read-out: BRDT-BD2 IC50) | pIC50 (BRD4-BD2) | BRD4-BD1 vs. BRD4-BD2 fold (BRD4-BD1 selectivity) (BRD4-BD1 [1]) | pIC50 (BRD4-BD1 [1]) | pIC50 (BRDT-BD1) | BRDT-BD1 vs. BRDT-BD2 fold (BRDT-BD1 selectivity) (BRDT-BD1) | further results
CNC(=O)C(CC1CCN(C(=O)Cc2ccc3[nH]c(=O)cc(C)c3c2)CC1)NC(=O)c1ccc(-c2ccc(C)cc2C)cn1 (centres unmarked) [CDD-724] | 4.89 | 4.46 | 4035 fold | 8.07 | 8.24 | 2,246 fold and > 2,000 fold | 
Cc1cc2c(-c3ccco3)cnc(N[C@@H]3CCN(C)C[C@H]3C(=O)NC3CCCCC3)c2[nH]c1=O [GSK789] |  |  |  |  |  |  | pKd (TAF1-BD2): 7.30; pKd (TAF1L-BD2): 6.40
Cc1nnc2n1-c1ccc(Cl)cc1C(c1ccccc1)=NC2 [Alprazolam, reference compound] |  |  |  |  |  |  | half-life at 2 μM [2]: 302 min; half-life at 2 μM [3]: 864 min
COc1ccccc1S(=O)(=O)Nc1ccc2c3c(cc(-n4cnc(C)c4)nc13)C(=O)N2C [LT052] |  |  |  |  |  |  | pIC50 (BRD2-BD1): 5.05; selectivity for BRD4-BD1 over BRD4-BD2 (BRD4-BD1 [4]): 138 fold; pIC50 (BRD4-BD1 [5]): 7.06
CNC(=O)[C@H](CC1CCN(C(=O)Cc2ccc3[nH]c(=O)cc(C)c3c2)CC1)NC(=O)c1ccc(-c2ccc(C)cc2C)cn1 [CDD-786] | 5.20 | 5.21 | 275 fold | 7.65 | 7.02 | 65 fold | pIC50 (MV4;11 cells [6]; Homo sapiens, MV4-11): 6.07; pIC50 (MOLM-13 cells [7]; Homo sapiens, MOLM-13): 6.14; pIC50 (THP1 cells; Homo sapiens, THP-1): 5.92; pIC50 (Kasumi1 cells; Homo sapiens, Kasumi 1): 6.58
Cc1cc(=O)[nH]c2ccc(CC(=O)N3CCC(CCNC(=O)c4cc5ccccc5cn4)CC3)cc12 [CDD-854] |  |  |  |  |  |  | pIC50 (BRD4-BD1 [1]; [13]): 6.92; pIC50 (BRDT-BD1; [13]): 6.94
Cc1ccc(-c2ccc(C(=O)NC(C)CC3CCN(C(=O)Cc4ccc5[nH]c(=O)cc(C)c5c4)CC3)nc2)c(C)c1 (centres unmarked) [CDD-906] |  |  | 381 fold |  |  | 756 fold | pIC50 (BRDT-BD2; [14]): 4.63; pIC50 (BRD4-BD2; [15]): 4.70; pIC50 (BRD4-BD1 [1]; [13]): 7.28; fold loss of selectivity on BRDT-BD1 (BRDT-BD1; AlphaScreen): 6.5 fold; pIC50 (BRDT-BD1; [13]): 7.51
CNC(=O)C(CC1CCN(C(=O)Cc2ccc3[nH]c(=O)ccc3c2)CC1)NC(=O)c1ccc(-c2ccccc2)cn1 (centres unmarked) [CDD-986] |  |  | 2,352 fold |  |  | 3,875 fold | pIC50 (BRDT-BD2; [14]): 4.68; pIC50 (BRD4-BD2; [15]): 4.78; pEC50 (MV4;11 cells [6]): 6.84; fold loss of selectivity over BRD4-BD2 (BRD4-BD1 [1]; AlphaScreen): 1.6 fold
Cc1cc(=O)[nH]c2ccc(CC(=O)N3CCN(CCNC(=O)c4ccccn4)CC3)cc12 [CDD-778] |  |  |  |  |  | 13.8 fold | pIC50 (BRDT-BD2; [14]): 4.14; pIC50 (BRD4-BD1 [1]; [13]): 5.89; pIC50 (BRDT-BD1; [13]): 5.28
Cc1cc(=O)[nH]c2ccc(CC(=O)N3CCC(CCNC(=O)c4nccc5ccccc45)CC3)cc12 [CDD-853] |  |  |  | 6.47 | 6.20 |  | 
CNC(=O)[C@@H](CC1CCN(C(=O)Cc2ccc3[nH]c(=O)cc(C)c3c2)CC1)NC(=O)c1ccc(-c2ccc(Cl)cc2)cn1 [CDD-981] | 4.47 | 4.70 | 1,553 fold | 7.89 | 8.29 | 6,633 fold | pEC50 (MV4;11 cells [6]; Homo sapiens, MV4-11): 7.24
Cc1ccc(-c2ccc(C(=O)NCCC3CCN(C(=O)Cc4ccc5[nH]c(=O)cc(C)c5c4)CC3)nc2)c(C)c1 [CDD-813] | 4.17 | 5.06 | 312 fold | 7.56 | 7.47 | 2012 fold | 
CNC(=O)[C@@H](CC1CCN(C(=O)Cc2ccc3[nH]c(=O)cc(C)c3c2)CC1)NC(=O)c1ccc(-c2ccc(Cl)c(F)c2)cn1 [CDD-982] | 4.65 | 4.86 | 1,423 fold | 8.01 | 8.33 | 4,799 fold | pEC50 (MV4;11 cells [6]; Homo sapiens, MV4-11): 7.00
Cc1sc2c(c1C)C(c1ccc(Cl)cc1)=N[C@@H](CC(=O)OC(C)(C)C)c1nnc(C)n1-2 [JQ1, reference compound] |  |  |  |  |  |  | pIC50 (MV4;11 cells [6]): 7.21; pIC50 (MOLM-13 cells [7]): 6.89; pIC50 (THP1 cells): 6.88; pIC50 (Kasumi1 cells): 7.53
Cc1cc(=O)[nH]c2ccc(CC(=O)N3CCC(CCNC(=O)c4ccccc4)CC3)cc12 [CDD-779] | 4.98 |  |  | 7.32 | 6.83 | 70 fold | 
Cc1cc(=O)[nH]c2ccc(CC(=O)N3CCC(CCNC(=O)c4ccc5ccccc5n4)CC3)cc12 [CDD-855] |  |  |  |  |  |  | pIC50 (BRD4-BD1 [1]; [13]): 6.91; pIC50 (BRDT-BD1; [13]): 7.09
Cc1cc(=O)[nH]c2ccc(CC(=O)N3CCC(CCNC(=O)c4ccccn4)CC3)cc12 [CDD-767] | 5.17 | 4.12 | 5,449 fold | 7.86 | 7.45 | 192 fold | 
CNC(=O)C(CC1CCN(C(=O)Cc2ccc3[nH]c(=O)cc(C)c3c2)CC1)NC(=O)c1ccccn1 (centres unmarked) [CDD-784] |  |  | 2,078 fold |  |  | 960 fold | pIC50 (BRDT-BD2; [14]): 4.71; pIC50 (BRD4-BD2; [15]): 4.49; pIC50 (BRD4-BD1 [1]; [13]): 7.80; pIC50 (BRDT-BD1; [13]): 7.69
CNC(=O)[C@@H](CC1CCN(C(=O)Cc2ccc3[nH]c(=O)cc(C)c3c2)CC1)NC(=O)c1ccc(-c2ccccc2)cn1 [CDD-956] |  |  |  |  |  |  | half-life at 2 μM [2]: 35 min; Effect on the cell cycle, MV4;11 (MV4;11 cells [8]): G1 arrest; Induction of apoptosis (Annexin V+ cells), MV4;11 (MV4;11 cells [9]): apoptosis; Induction of apoptosis (Annexin V+ cells), MOLM-13 (MOLM-13 cells [10]): apoptosis; MYC expression, MOLM-13 [11]: suppressed; MYC expression, MV4;11 [12]: suppressed
COc1cc(OC)c2c(=O)[nH]c(-c3cc(C)c(OCCO)c(C)c3)nc2c1 [RVX-208] |  |  |  |  |  |  | pIC50 (BRDT-BD2; AlphaScreen, read-out: IC50 in our BRDT-BD2 AlphaScreen assay): 5.70; selectivity over BD1 domains (BD2; BD2 over BD1): ~10 fold; BD2 potency (BD2): > 100 nM
